The source made the active and inactive calls.
Columns and labels:
Galanin receptor type 2 = Galanin receptor type 2 (Homo sapiens, UniProt O43603); experiment: Dose Response cell-based high-throughput screening assay to identify antagonists of galanin receptor 2 (GALR2). [Related pubchem assays: 828, 866 ]; type: functional
Jurkat = experiment: blockers of NF-kB activation in T cells – Jurkat, luciferase reporter, luminescence, B- and T-cell, dose response (AID 489004); type: functional, cell-based; details: Homo sapiens;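 also: NF-kB luciferase reporter Jurkat cells stimulated with PMA plus ionomycin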
[1] = HEK-293T viability loss, compound-treated – cell-based, uHTS hits, cytotoxicity control for B/T-cell NF-kB inhibitor project, dose response (AID 489019); type: functional;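 also: IC50 reflects cytotoxicity as loss of cell viability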
INS1 [2] = experiment: INS-1E survival protection against cytokine death – cell-based, luminescence, retest, dose response (AID 449756); type: functional; details: Rattus norvegicus;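 also: cell death triggered by IL-1 beta plus TNF-alpha plus IFN-gamma mixture; protective hits raise ATP signal compared with cytokine alone wells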
Galanin receptor type 3 = Galanin receptor type 3 (Homo sapiens, UniProt O60755); experiment: Fluorescence-based cell-based primary high throughput dose response assay to identify antagonists of the Galanin Receptor 3 (GalR3).; type: functional
cells = type: functional, cell-based; details: HEK-CNG
[3] = target: T1, Acyl-homoserine lactone acylase PvdQ (Pseudomonas aeruginosa (strain LESB58), UniProt Q9I194); experiment: PvdQ acylase enzyme activity blockers – biochemical, fluorescence, plate reader and imaging, cherry-picks, dose response (AID 493231)
T1 sequence (Q9I194 whole entry): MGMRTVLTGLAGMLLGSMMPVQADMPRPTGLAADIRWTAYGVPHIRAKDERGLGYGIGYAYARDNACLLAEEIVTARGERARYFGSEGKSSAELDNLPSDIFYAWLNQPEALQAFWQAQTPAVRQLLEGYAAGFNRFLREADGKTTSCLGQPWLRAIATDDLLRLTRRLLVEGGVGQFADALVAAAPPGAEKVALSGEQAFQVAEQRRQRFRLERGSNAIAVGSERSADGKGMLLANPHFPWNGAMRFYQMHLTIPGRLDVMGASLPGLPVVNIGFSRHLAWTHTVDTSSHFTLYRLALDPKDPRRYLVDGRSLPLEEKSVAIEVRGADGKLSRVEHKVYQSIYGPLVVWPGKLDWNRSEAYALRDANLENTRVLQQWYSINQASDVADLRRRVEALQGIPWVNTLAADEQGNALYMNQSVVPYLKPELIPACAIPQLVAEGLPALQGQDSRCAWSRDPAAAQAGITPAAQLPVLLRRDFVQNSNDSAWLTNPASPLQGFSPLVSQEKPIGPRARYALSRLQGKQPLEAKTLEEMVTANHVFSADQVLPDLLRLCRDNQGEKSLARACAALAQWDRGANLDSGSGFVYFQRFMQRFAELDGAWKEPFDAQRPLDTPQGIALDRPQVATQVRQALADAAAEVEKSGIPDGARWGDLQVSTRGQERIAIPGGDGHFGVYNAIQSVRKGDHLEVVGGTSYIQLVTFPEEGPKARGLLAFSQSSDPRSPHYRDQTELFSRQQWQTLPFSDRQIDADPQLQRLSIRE

HeLa [4] = experiment: toxicity to human HeLa cells – cell-based, 48 h, plate reader, cherry-picks, cytotoxicity control, dose response (AID 504942); type: functional
Escherichia coli = experiment: microbe, parasite or virus in culture
HeLa [5] = experiment: Cytotoxicity counterscreen assay for transcriptional activators of heat shock protein 70 (Hsp70). [Related pubchem assays: 1203, 1252 ]; type: functional; details: Homo sapiens
[6] = target: T2, Microphthalmia-associated transcription factor (Homo sapiens, UniProt O75030); experiment: reducers of TRPM1 reporter luminescence, concentration series – cell-based, SK-MEL-5, cherry-picked, set 3, MITF inhibitor project, dose response (AID 493073); type: functional;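 also: SK-MEL-5 melanoma cells with luciferase driven by the MITF target TRPM1 promoter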
T2 sequence (O75030 whole entry): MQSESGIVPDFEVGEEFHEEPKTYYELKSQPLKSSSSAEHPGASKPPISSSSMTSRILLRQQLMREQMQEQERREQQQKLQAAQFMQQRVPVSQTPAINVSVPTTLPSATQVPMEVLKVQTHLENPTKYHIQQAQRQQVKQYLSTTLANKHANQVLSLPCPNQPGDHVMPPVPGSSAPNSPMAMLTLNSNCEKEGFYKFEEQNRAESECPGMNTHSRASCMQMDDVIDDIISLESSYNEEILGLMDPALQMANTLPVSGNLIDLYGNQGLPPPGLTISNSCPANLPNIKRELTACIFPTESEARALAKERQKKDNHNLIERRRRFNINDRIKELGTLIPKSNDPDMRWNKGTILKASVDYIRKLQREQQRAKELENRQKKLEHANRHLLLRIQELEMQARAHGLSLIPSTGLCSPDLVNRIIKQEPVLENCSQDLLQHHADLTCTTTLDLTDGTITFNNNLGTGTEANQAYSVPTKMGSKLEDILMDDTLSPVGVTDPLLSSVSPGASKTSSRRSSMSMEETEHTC

A-375 [7] = experiment: MITF: Counter assay: A375 proliferation Measured in Cell-Based System Using Plate Reader - 2084-03_Inhibitor_Dose_DryPowder_Activity. [Related pubchem assays (depositor defined):AID488944]; type: functional; details: Homo sapiens
A-375 [8] = experiment: proliferation inhibition in MITF-low A375 cells – cell-based, cherry-pick samples, set 2, counter-screen for MITF modulator project, dose response (AID 540335); type: functional; details: Homo sapiens
[9] = reduction of Shn3 3'UTR-driven luciferase in osteoblasts – cell-based, Clone20 osteoblasts, firefly luciferase, cherry-picked, dose response (AID 624132); type: functional;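 also: firefly luciferase luminescence from reporter carrying the Shn3 3'UTR in osteoblasts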
[10] = loss of viability in HepG2 cells – cell-based, CellTiter-Glo, cherry-picked, cytotoxicity control for Shn3 inhibitor project, dose response (AID 624134); type: functional
[11] = non-specific 3'UTR reporter inhibition in Clone20-Shn3RL – cell-based, Renilla luciferase, cherry-picked, counter-screen for Shn3 inhibitor project, dose response (AID 624133); type: functional
Paired box protein Pax-8 = Paired box protein Pax-8 (Homo sapiens, UniProt Q06710); experiment: PAX8 transcriptional activity inhibition in RMG-I – RMG-I cells, luciferase, cherry-pick, dose response (AID 687027); type: functional, cell-based;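 also: luciferase reporter driven by Pax8 target thyroperoxidase promoter measured by SteadyGlo luminescence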
[12] = CMV-driven luciferase expression suppression in HEK293 – cell-based, luminescence, dry powder, counter-screen for Pax8 inhibitor project, dose response (AID 743020); type: functional
[13] = HEK-293T viability loss after treatment – luminescence, T-cell screen hits, cytotoxicity control for TCR NF-kB inhibitor project, dose response (AID 489026); type: functional, cell-based;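 also: cells exposed to compound about 14 hours before the viability readout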
Phospholipase A2 = Phospholipase A2 (Homo sapiens, UniProt P04054); experiment: phospholipase A2 activity inhibition – biochemical, set 2, counter-screen for ATG4B inhibitor project, dose response (AID 588586); type: functional
Cysteine protease ATG4B = target: T3, Cysteine protease ATG4B (Homo sapiens, UniProt Q9Y4P1); experiment: autophagin-1 cysteine protease inhibition – biochemical, fluorescence, set 2, dose response (AID 588584); type: functional
T3 sequence (Q9Y4P1 whole entry): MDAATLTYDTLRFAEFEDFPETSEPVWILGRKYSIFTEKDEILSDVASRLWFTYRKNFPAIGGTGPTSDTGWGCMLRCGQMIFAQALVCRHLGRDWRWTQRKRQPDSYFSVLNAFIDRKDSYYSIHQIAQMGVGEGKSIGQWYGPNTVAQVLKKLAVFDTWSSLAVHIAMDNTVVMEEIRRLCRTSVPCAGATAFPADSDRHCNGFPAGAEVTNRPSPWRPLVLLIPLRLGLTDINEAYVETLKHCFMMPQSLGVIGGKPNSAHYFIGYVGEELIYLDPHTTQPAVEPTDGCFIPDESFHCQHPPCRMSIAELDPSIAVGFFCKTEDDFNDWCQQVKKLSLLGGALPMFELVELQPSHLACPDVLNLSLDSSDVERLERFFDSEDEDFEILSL

INS1 [14] = experiment: beta-cell survival under cytokine stress – INS-1E, ATP luminescence, dry powder, dose response (AID 488844); type: functional, cell-based; details: Rattus norvegicus
INS1 [15] = experiment: INS-1E mitochondrial potential rescue under cytokines – cell-based, JC-1 fluorescence ratio, dry powder, dose response (AID 488931); type: functional; details: Rattus norvegicus
[16] = target: T4, Short transient receptor potential channel 4 (Mus musculus, UniProt Q9QUQ5); experiment: SAR Analysis for the identification of selective inhibits of the transient receptor potential cation channel C4 (TRPC4): Automated Electrophysiology. [Related pubchem assays (depositor defined):AID2256]; type: functional
T4 sequence (Q9QUQ5 whole entry): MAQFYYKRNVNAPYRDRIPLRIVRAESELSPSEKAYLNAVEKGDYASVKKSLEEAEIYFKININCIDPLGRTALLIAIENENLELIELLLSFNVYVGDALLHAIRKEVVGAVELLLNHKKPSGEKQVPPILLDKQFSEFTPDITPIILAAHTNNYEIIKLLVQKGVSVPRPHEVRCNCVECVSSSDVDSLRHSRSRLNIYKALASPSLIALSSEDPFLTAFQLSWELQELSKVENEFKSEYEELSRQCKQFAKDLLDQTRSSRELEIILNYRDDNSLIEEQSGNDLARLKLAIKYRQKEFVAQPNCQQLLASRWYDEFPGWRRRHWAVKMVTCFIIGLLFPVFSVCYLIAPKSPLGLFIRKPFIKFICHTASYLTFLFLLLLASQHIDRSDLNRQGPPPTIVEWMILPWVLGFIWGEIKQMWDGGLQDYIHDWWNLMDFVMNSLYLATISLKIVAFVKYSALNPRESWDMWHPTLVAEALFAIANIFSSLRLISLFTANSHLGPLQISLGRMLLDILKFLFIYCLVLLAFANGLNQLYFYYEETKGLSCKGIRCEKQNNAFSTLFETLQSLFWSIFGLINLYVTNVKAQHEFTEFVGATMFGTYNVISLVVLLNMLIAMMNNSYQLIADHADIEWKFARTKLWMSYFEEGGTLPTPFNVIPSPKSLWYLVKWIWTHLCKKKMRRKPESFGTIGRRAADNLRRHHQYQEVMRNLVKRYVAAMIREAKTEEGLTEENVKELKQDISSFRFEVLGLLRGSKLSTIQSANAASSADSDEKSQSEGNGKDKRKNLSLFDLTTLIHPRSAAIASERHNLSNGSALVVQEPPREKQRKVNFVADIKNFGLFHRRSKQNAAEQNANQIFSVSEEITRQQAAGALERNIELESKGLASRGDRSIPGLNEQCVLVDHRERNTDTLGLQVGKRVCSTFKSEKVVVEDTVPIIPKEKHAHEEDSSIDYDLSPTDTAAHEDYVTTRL

[17] = target: T4, Short transient receptor potential channel 4; experiment: mouse TRPC4 block via Gq-coupled stimulation – cell-based, acetylcholine stimulus, HEK293 TRPC4, Fluo-4, SAR follow-up (AID 492996); type: functional
[18] = target: T4, Short transient receptor potential channel 4; experiment: SAR Analysis for the identification of selective inhibitors of the transient receptor potential cation channel C4 (TRPC4): TRPC4 Serotonin Receptor CRC MPD assay. [Related pubchem assays (depositor defined):AID2247, AID2256]; type: functional
[19] = target: T4, Short transient receptor potential channel 4; experiment: potency of mouse TRPC4 calcium flux blockers – cell-based, HEK293 TRPC4/mu-opioid, DAMGO stimulus, Fluo-4, dose response (AID 492994); type: functional
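For CC50 in this document: cells exposed to compound for 16 hours before readout.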
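For EC50 in this document: target is galanin receptor GalR3 read with a cAMP biosensor in HEK293 cells.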

Sequence of Phospholipase A2 (P04054 whole entry): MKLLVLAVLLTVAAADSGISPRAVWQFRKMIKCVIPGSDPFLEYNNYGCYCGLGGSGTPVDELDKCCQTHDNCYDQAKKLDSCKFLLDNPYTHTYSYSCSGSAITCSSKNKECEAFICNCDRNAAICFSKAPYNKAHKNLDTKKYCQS
Sequence of Paired box protein Pax-8 (Q06710 whole entry): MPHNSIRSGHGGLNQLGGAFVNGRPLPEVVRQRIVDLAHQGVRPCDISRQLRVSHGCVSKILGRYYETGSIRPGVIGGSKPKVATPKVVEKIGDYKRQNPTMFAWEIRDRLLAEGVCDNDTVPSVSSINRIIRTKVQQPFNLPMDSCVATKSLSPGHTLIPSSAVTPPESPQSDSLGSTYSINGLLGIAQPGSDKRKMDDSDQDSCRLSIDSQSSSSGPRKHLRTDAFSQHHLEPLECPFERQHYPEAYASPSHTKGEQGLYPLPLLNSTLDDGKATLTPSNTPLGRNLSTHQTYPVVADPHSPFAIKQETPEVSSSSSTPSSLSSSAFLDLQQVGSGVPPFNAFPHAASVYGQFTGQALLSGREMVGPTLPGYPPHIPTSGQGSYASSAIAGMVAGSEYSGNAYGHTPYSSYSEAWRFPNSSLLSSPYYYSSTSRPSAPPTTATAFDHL
Sequence of Galanin receptor type 3 (O60755 whole entry): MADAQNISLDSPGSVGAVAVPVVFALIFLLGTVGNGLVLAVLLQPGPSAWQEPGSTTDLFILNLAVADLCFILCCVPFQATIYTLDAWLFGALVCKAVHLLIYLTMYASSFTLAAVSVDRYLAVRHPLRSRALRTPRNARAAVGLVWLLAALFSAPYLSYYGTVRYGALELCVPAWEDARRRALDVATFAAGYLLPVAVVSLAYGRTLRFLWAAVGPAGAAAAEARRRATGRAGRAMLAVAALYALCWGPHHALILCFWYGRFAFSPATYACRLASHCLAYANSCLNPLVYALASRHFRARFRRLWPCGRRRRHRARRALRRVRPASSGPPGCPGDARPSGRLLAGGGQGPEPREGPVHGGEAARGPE
Sequence of Galanin receptor type 2 (O43603 whole entry): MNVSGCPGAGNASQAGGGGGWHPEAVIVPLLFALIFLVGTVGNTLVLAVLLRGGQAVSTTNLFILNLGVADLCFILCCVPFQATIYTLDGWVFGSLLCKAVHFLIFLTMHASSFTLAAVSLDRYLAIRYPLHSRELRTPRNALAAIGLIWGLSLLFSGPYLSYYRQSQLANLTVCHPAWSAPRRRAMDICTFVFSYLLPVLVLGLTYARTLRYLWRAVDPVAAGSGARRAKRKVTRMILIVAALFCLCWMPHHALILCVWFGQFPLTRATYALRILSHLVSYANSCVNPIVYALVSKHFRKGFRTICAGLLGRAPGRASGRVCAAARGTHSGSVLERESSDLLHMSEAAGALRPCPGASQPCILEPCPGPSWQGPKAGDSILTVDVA

With `Cn1nc(C(C)(C)C)cc1C(=O)NCc1ccc(N2CCCC2=O)cc1` the IC50 (Galanin receptor type 2) was > 42 µM (not active), the IC50 (Jurkat) was > 80 µM (inactive) and the IC50 [1] was > 80 µM (inactive). For the same compound, the AC50 (INS1 [2]) was 2.85 µM (active), the IC50 (Galanin receptor type 3) was 1.13 µM (active) and the EC50 (cells) was > 29.9 µM (inactive).

For `Cn1cccc1C(=O)OCc1cc(-c2ccco2)on1`, the AC50 [3] was 11.1 µM (active) and the AC50 (HeLa [4]) was > 380 µM (inactive).

In the case of `CC(=O)N1Cc2cc([N+](=O)[O-])ccc2Oc2ccccc21`, the AC50 (Escherichia coli) is reported as 28.5 µM (active).

For `CCC(=O)N1CCN(c2ccc(NC(=O)c3ccc([N+](=O)[O-])o3)cc2Cl)CC1`, the CC50 (HeLa [5]) was 4.57 µM (active), the AC50 [6] was 6.09 µM (active) and the AC50 (A-375 [7]) was > 35 µM (active). For the same compound, the AC50 (A-375 [8]) was > 35 µM (active), the AC50 [9] was 0.85 µM (active) and the AC50 [10] was 20.5 µM (active). For the same compound, the AC50 [11] was 5.2 µM (active), the AC50 (Paired box protein Pax-8) was 4.12 µM (active) and the AC50 [12] was 2.21 µM (active).

In the case of `Cc1noc(C)c1CSc1nc2ccccc2c(=O)n1-c1ccccc1`, the IC50 [13] is reported as > 80 µM (inactive), the IC50 (Phospholipase A2) is reported as 10.7 µM (active) and the IC50 (Cysteine protease ATG4B) is reported as 19.2 µM (active).

In the case of `COc1ccc(S(=O)(=O)N(C)C[C@@H]2Oc3c(NC(=O)Nc4cccc5ccccc45)cccc3C(=O)N(C(C)C)C[C@H]2C)cc1`, the AC50 (INS1 [14]) is reported as 63.7 µM (active) and the AC50 (INS1 [15]) is reported as 24 µM (active).

With `Cc1cc(N2CCC(C)CC2)nc2ccccc12` the IC50 [16] was 3.14 µM (active), the IC50 [17] was 20.7 µM (active) and the IC50 [18] was 5.47 µM (active). For the same compound, the IC50 [19] was 7.24 µM (active).

Source: ChEMBL document CHEMBL1201862, “PubChem BioAssay data set” (2004)
